Source: patent US20110306570A1, “Na/K-Atpase Expression as an Indicator for the Treatment of Cancer” (UNIVERSITY OF TOLEDO, priority 2008, published 2011)

Target: T1, Na/K-ATPase α1 (Mus musculus, UniProt Q8VDN2)
T1 construct: endogenous in cells; host or cells: SYF cells; SYF cells rescued by c-Src
Test: Na/K-ATPase α1 expression, SYF cells rescued by c-Src
Type: cell-based
Conditions: 0.5 and 1.0 μM ouabain
Excerpt: To further understand the molecular mechanism of ouabain-induced up-regulation of α1, the inventors first addressed the role of Src.

## C[C@@H]1O[C@@H](O[C@H]2C[C@@H](O)[C@]3(CO)[C@H]4[C@H](O)C[C@]5(C)[C@@H](C6=CC(=O)OC6)CC[C@]5(O)[C@@H]4CC[C@]3(O)C2)[C@H](O)[C@H](O)[C@H]1O [ouabain]
  induction of α1 expression: three-fold induction
